Where two headings read alike, the source gives them in different places.
How the values were obtained:
184B5/HER = assay: In vitro cytotoxicity, Breast (1), 184B5/HER; type: cell-based; conditions: 1 × 10^−4 M
LNCaP = assay: MTT cytotoxicity assay, LNCaP prostate cancer cells; type: cell-based, human
Description: The human prostate cancer LNCaP, PC-3, and DU-145 cell lines, as well as human fibroblast cell line, were obtained from the American Type Culture Collection (“ATCC”) and maintained in RPMI-1640, F-12k, and MEM mediums, respectively, supplemented with 10% FBS. Cell lines were maintained at 37° C. under a humidified atmosphere and 5% CO2 for testing of the cytotoxicity of betulinol derivatives. The cytotoxicity assay was performed using MTT assay according to the instructions of ATCC protocol. Cells 1×10^5 in 0.1 ml/well were plated in 96-well culture plates (Costar) and incubated with a different dilution of betulinol derivatives for 24, 48, and 72 hours. Ten μl of 3-[4,5-dimethylthiazol-2-yl]-2,5 diphenyl tetrazolium bromide was added into each well at the end of each incubation period. The reaction product, formazan, was dissolved in the detergent, and the absorbance was read at 540 nm (Ref).
(§1) However, these compounds were not tested on prostate cancer LNCaP cell line by NCI. […] The anti-tumor activity of the compounds was determined at three doses and the total growth inhibition kill effect as pertinent of the control at 24, 48, and 72 hours as presented in Table 11.

SF-268 = assay: In vitro cytotoxicity, CNS (2), SF-268; type: cell-based, human
MCF7 = assay: In vitro cytotoxicity, Breast (2), MCF7; type: cell-based, human
NCI-H460 = assay: In vitro cytotoxicity, Lung (2), NCI-H460; type: cell-based, human
Description: as §1

NCI-H322M = assay: In vitro cytotoxicity, Lung (2), NCI-H322M; type: cell-based, human
Description: as §1

RXF 393 = assay: In vitro cytotoxicity, Renal (2), RXF 393; type: cell-based, human
TK-10 = assay: In vitro cytotoxicity, Renal (2), TK-10; type: cell-based, human
Description: as §1

DU-145 = assay: In vitro cytotoxicity, Prostate (2), DU-145; type: cell-based, human
OVCAR-5 = assay: In vitro cytotoxicity, Ovarian (2), OVCAR-5; type: cell-based, human
Description: as §1

U251 = assay: In vitro cytotoxicity, CNS (2), U251; type: cell-based, human
CAKI-1 = assay: In vitro cytotoxicity, Renal (2), CAKI-1; type: cell-based, human
Description: as §1

PC-3 = assay: In vitro cytotoxicity, Prostate (2), PC-3; type: cell-based, human
T-47d = assay: In vitro cytotoxicity, Breast (2), T-47d; type: cell-based, human
Description: as §1

HOP-92 = assay: In vitro cytotoxicity, Lung (2), HOP-92; type: cell-based, human
Description: as §1

OVACR-3 = assay: In vitro cytotoxicity, Ovarian (2), OVACR-3; type: cell-based, human
Description: as §1

MALME-3M = assay: In vitro cytotoxicity, Melanoma (2), MALME-3M; type: cell-based, human
[1] = Tolerability of solubilized drug in mice with prostate cancer cell xenografts; type: in vivo; conditions: 22% ethanol, 2×10^−3 mol per liter of betulonic acid
[2] = Homo sapiens, 24 hours, 2.5 × 10^−5 M, read-out: Growth Inhibition %
[3] = Homo sapiens, 24 hours, 2.5 × 10^−6 M, read-out: Growth Inhibition %
[4] = Homo sapiens, 24 hours, 2.5 × 10^−7 M, read-out: Growth Inhibition %
[5] = Homo sapiens, 48 hours, 2.5 × 10^−5 M, read-out: Growth Inhibition %
[6] = Homo sapiens, 48 hours, 2.5 × 10^−6 M, read-out: Growth Inhibition %
[7] = Homo sapiens, 48 hours, 2.5 × 10^−7 M, read-out: Growth Inhibition %

C=C(C)C1CCC2(COC)CCC3(C)C(CCC4C5(C)CCC(OC)C(C)(C)C5CCC43C)C12 (stereo not drawn) [Compound 7, Betulin Dimethyl ether (Cornelon)]
Percent Killed (184B5/HER): Toxic | inhibition at 25 µM (LNCaP; [2]): 45% | inhibition at 2.5 µM (LNCaP; [3]): 18.1% | inhibition at 0.25 µM (LNCaP; [4]): 7.76% | inhibition at 25 µM (LNCaP; [5]): 50.9% | inhibition at 2.5 µM (LNCaP; [6]): 44% | inhibition at 0.25 µM (LNCaP; [7]): 27.9% | Percent Killed (SF-268; SF-268, 1 × 10^−4 M): 100% | Percent Killed (MCF7; MCF7, 1 × 10^−4 M): 97% | Percent Killed (NCI-H460; NCI-H460, 1 × 10^−4 M): 80%

C=C(C)[C@@H]1CC[C@]2(CO)CC[C@]3(C)[C@H](CC[C@@H]4[C@@]5(C)CC[C@H](OC(C)=O)C(C)(C)[C@@H]5CC[C@]43C)[C@@H]12 [Compound 8, 3-Acetoxy Betulin]
Growth Inhibition % (LNCaP; 24 hours, 2.5 × 10^−7 M): 0%

C=C(C)[C@@H]1CC[C@]2(C=O)CC[C@]3(C)[C@H](CC[C@@H]4[C@@]5(C)CC[C@H](O)C(C)(C)[C@@H]5CC[C@]43C)[C@@H]12 [Compound 3, Betulin Aldehyde]
Growth Inhibition % (LNCaP; 24 hours, 2.5 × 10^−6 M): 11.0%

C=C(C)C1CCC2(CO)CC[C@]3(C)[C@H](CC[C@@H]4[C@@]5(C)CCC(O)C(C)(C)[C@@H]5CC[C@]43C)C12 (stereo partly drawn) [Compound 1, Betulinol]
inhibition at 25 µM (LNCaP; [2]): 47.2% | inhibition at 2.5 µM (LNCaP; [3]): 11.9% | inhibition at 0.25 µM (LNCaP; [4]): 8.24% | inhibition at 25 µM (LNCaP; [5]): 31% | inhibition at 2.5 µM (LNCaP; [6]): 13.8% | inhibition at 0.25 µM (LNCaP; [7]): 10.6%

C=C(C)[C@@H]1CC[C@]2(C(=O)O)CC[C@]3(C)[C@H](CC[C@@H]4[C@@]5(C)CC[C@H](O)C(C)(C)[C@@H]5CC[C@]43C)[C@@H]12 [Compound 2, Betulinic Acid]
Growth Inhibition % (LNCaP; 24 hours, 2.5 × 10^−5 M): 41.0%

C=C(C)C1CCC2(C(=O)NCCCCC(NC(=O)OC(C)(C)C)C(=O)OC)CC[C@]3(C)[C@H](CC[C@@H]4[C@@]5(C)CCC(=O)C(C)(C)[C@@H]5CC[C@]43C)C12 (stereo partly drawn) [Monomer]
cells killed (LNCaP; 1×10^−4 M): ~80% | inhibition at 100 µM (LNCaP; Homo sapiens, 48 hours, 1 × 10^−4 M, read-out: Growth Inhibition %): 82.8 ± 14.3%

C=C(C)[C@@H]1CC[C@]2(COC(C)=O)CC[C@]3(C)[C@H](CC[C@@H]4[C@@]5(C)CC[C@H](OC(C)=O)C(C)(C)[C@@H]5CC[C@]43C)[C@@H]12 [Compound 6, Betulin Diacetate]
Percent Killed (NCI-H322M; 1 × 10^−4 M): 100% | Percent Killed (NCI-H322M; 1 × 10^−5 M): 100% | Percent Killed (NCI-H322M; 1 × 10^−6 M): 100% | Percent Killed (RXF 393; RXF 393, 1 × 10^−4 M): 100% | Percent Killed (RXF 393; RXF 393, 1 × 10^−5 M): 100% | Percent Killed (RXF 393; RXF 393, 1 × 10^−6 M): 100% | Percent Killed (RXF 393; RXF 393, 1 × 10^−7 M): 97% | Percent Killed (RXF 393; RXF 393, 1 × 10^−8 M): 15% | Percent Killed (TK-10; TK-10, 1 × 10^−4 M): 100% | Percent Killed (TK-10; TK-10, 1 × 10^−5 M): 100% | Percent Killed (TK-10; TK-10, 1 × 10^−6 M): 49% | Percent Killed (DU-145; DU-145, 1 × 10^−4 M): 100% | Percent Killed (DU-145; DU-145, 1 × 10^−5 M): 100% | Percent Killed (DU-145; DU-145, 1 × 10^−6 M): 100% | Percent Killed (DU-145; DU-145, 1 × 10^−7 M): 100% | Percent Killed (DU-145; DU-145, 1 × 10^−8 M): 27% | Percent Killed (OVCAR-5; OVCAR-5, 1 × 10^−4 M): 100% | Percent Killed (OVCAR-5; OVCAR-5, 1 × 10^−5 M): 100% | Percent Killed (OVCAR-5; OVCAR-5, 1 × 10^−6 M): 100% | inhibition at 25 µM (LNCaP; [2]): 17% | inhibition at 2.5 µM (LNCaP; [3]): 18.7% | inhibition at 0.25 µM (LNCaP; [4]): 0% | inhibition at 25 µM (LNCaP; [5]): 56.6% | inhibition at 2.5 µM (LNCaP; [6]): 46.7% | inhibition at 0.25 µM (LNCaP; [7]): 27.9% | Percent Killed (U251; U251, 1 × 10^−4 M): 100% | Percent Killed (U251; U251, 1 × 10^−5 M): 100% | Percent Killed (U251; U251, 1 × 10^−6 M): 100% | Percent Killed (U251; U251, 1 × 10^−7 M): 100% | Percent Killed (CAKI-1; CAKI-1, 1 × 10^−4 M): 100% | Percent Killed (CAKI-1; CAKI-1, 1 × 10^−5 M): 100% | Percent Killed (CAKI-1; CAKI-1, 1 × 10^−6 M): 100% | Percent Killed (PC-3; PC-3, 1 × 10^−4 M): 25% | Percent Killed (PC-3; PC-3, 1 × 10^−5 M): 15% | Percent Killed (T-47d; 1 × 10^−4 M): 100% | Percent Killed (T-47d; 1 × 10^−5 M): 100% | Percent Killed (T-47d; 1 × 10^−6 M): 100% | Percent Killed (T-47d; 1 × 10^−7 M): 23% | Percent Killed (SF-268; SF-268, 1 × 10^−4 M): 100% | Percent Killed (SF-268; SF-268, 1 × 10^−5 M): 100% | Percent Killed (SF-268; SF-268, 1 × 10^−6 M): 100% | Percent Killed (SF-268; SF-268, 1 × 10^−7 M): 75% | Percent Killed (SF-268; SF-268, 1 × 10^−8 M): 15% | Percent Killed (HOP-92; HOP-92, 1 × 10^−4 M): 100% | Percent Killed (HOP-92; HOP-92, 1 × 10^−5 M): 100% | Percent Killed (HOP-92; HOP-92, 1 × 10^−6 M): 100% | Percent Killed (MCF7; MCF7, 1 × 10^−4 M): 100% | Percent Killed (MCF7; MCF7, 1 × 10^−5 M): 100% | Percent Killed (MCF7; MCF7, 1 × 10^−6 M): 100% | Percent Killed (MCF7; MCF7, 1 × 10^−7 M): 100% | Percent Killed (OVACR-3; OVACR-3, 1 × 10^−4 M): 100% | Percent Killed (OVACR-3; OVACR-3, 1 × 10^−5 M): 100% | Percent Killed (OVACR-3; OVACR-3, 1 × 10^−6 M): 96% | Percent Killed (NCI-H460; NCI-H460, 1 × 10^−4 M): 100% | Percent Killed (NCI-H460; NCI-H460, 1 × 10^−5 M): 100% | Percent Killed (NCI-H460; NCI-H460, 1 × 10^−6 M): 100% | Percent Killed (NCI-H460; NCI-H460, 1 × 10^−7 M): 25% | Percent Killed (MALME-3M; 1 × 10^−4 M): 100% | Percent Killed (MALME-3M; 1 × 10^−5 M): 100% | Percent Killed (MALME-3M; 1 × 10^−6 M): 100% | Percent Killed (MALME-3M; 1 × 10^−7 M): 100% | Percent Killed (MALME-3M; 1 × 10^−8 M): 98%

C=C(C)C1CCC2(C(=O)NCCCCC(NC(=O)OC(C)(C)C)C(=O)O)CC[C@]3(C)[C@H](CC[C@@H]4[C@@]5(C)CCC(=O)C(C)(C)[C@@H]5CC[C@]43C)C12 (stereo partly drawn) [Boc-Monomer]
tolerability [1]: well tolerated

C=C(C)C1CCC2(C=O)CCC3(C)C(CCC4C5(C)CCC(=O)C(C)(C)C5CCC43C)C12 (stereo not drawn) [Compound 5, Betulon Aldehyde]
inhibition at 25 µM (LNCaP; [2]): 19% | inhibition at 2.5 µM (LNCaP; [3]): 21.9% | inhibition at 0.25 µM (LNCaP; [4]): 6.34% | inhibition at 25 µM (LNCaP; [5]): 40.2% | inhibition at 2.5 µM (LNCaP; [6]): 47.4% | inhibition at 0.25 µM (LNCaP; [7]): 29.8% | Percent Killed (SF-268; SF-268, 1 × 10^−4 M): 27% | Percent Killed (MCF7; MCF7, 1 × 10^−4 M): 68% | Percent Killed (NCI-H460; NCI-H460, 1 × 10^−4 M): 89%

— patent US8088757B2, “Betulinol derivatives as anti-cancer agents” (priority 2004, dated 2012)
